Test results as given in the supplement of paper PMC11061612.

Legend:
Test in all cases: Bliss excess, mean over the matrix (fraction); higher = more synergy
[1] = test system: SW48 (Colorectal Carcinoma)
How it was run: (§1)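 Cell lines grown in DMEM/F12 or RPMI with 10% FBS were plated in 1536-well plates and held 24 hours at 37°C, 5% CO2 before 72 hours of exposure to two-drug dose matrices, with DMSO typically at 0.2%. CellTiter-Glo 2.0 luminescence gave viability, which was converted to inhibition. Vehicle wells were set to 0 and blank wells to 1. Combination Emax is the second-highest inhibition in the matrix, and Bliss excess is the observed combination effect minus the expected EA + EB − EA·EB, where EA and EB are the single-agent effects.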

[2] = test system: SK-LMS-1 (Other Solid Carcinomas)
How it was run: as §1

EW-22 (Ewing's Sarcoma) = test system: EW-22 (Ewing's Sarcoma)
How it was run: as §1

MSTO-211H (Mesothelioma) = test system: MSTO-211H (Mesothelioma)
How it was run: as §1

[3] = test system: KG-1 (Acute Myeloid Leukemia)
How it was run: as §1

SK-MEL-1 (Melanoma) = test system: SK-MEL-1 (Melanoma)
How it was run: as §1

[4] = test system: EFM-192A (Breast Carcinoma)
How it was run: as §1

[5] = test system: ETK-1 (Biliary Tract Carcinoma)
How it was run: as §1

[6] = test system: GDM-1 (Acute Myeloid Leukemia)
How it was run: as §1

[7] = test system: MEG-01 (Chronic Myelogenous Leukemia)
How it was run: as §1

H4 (Low Grade Glioma) = test system: H4 (Low Grade Glioma)
How it was run: as §1

[8] = test system: RCC10RGB (Kidney Carcinoma)
How it was run: as §1

[9] = test system: TYK-nu (Ovarian Carcinoma)
How it was run: as §1

[10] = test system: P31-FUJ (Acute Myeloid Leukemia)
How it was run: as §1

D-392MG (Glioblastoma) = test system: D-392MG (Glioblastoma)
How it was run: as §1

HuO9 (Osteosarcoma) = test system: HuO9 (Osteosarcoma)
How it was run: as §1

[11] = test system: SLVL (B-Cell Non-Hodgkin's Lymphoma)
How it was run: as §1

[12] = test system: SNU-61 (Colorectal Carcinoma)
How it was run: as §1

[13] = test system: SNG-M (Endometrial Carcinoma)
How it was run: as §1

[14] = test system: CAL-39 (Other Solid Carcinomas)
How it was run: as §1

Compound | Bliss excess [1] | Bliss excess [2] | Bliss excess (EW-22 (Ewing's Sarcoma)) | Bliss excess (MSTO-211H (Mesothelioma)) | Bliss excess [3] | Bliss excess (SK-MEL-1 (Melanoma)) | Bliss excess [4] | Bliss excess [5] | Bliss excess [6] | Bliss excess [7] | Bliss excess (H4 (Low Grade Glioma)) | Bliss excess [8] | Bliss excess [9] | Bliss excess [10] | Bliss excess (D-392MG (Glioblastoma)) | Bliss excess (HuO9 (Osteosarcoma)) | Bliss excess [11] | Bliss excess [12] | Bliss excess [13] | Bliss excess [14]
COc1nnc2ccc(N3CCC(c4ccc(OCCN5CCN(C)C(=O)[C@H]5C)cc4)CC3)nn12 [AZD5153] + C[C@@H]1COCCN1C2=NC(=NC(=C2)C3(CC3)[S@](=N)(=O)C)C4=C5C=CNC5=NC=C4 [AZD6738] (first compound max 1 µM, 7x7, partner max 10 µM) | -0.109 | -0.0163 | -0.0258 | -0.0354 | 0.0159 | 0.0103 | 0.0551 | 0.0107 | 0.0146 | -0.0595 | -0.0081 | 0.0638 | -0.0386 | -0.0685 | -0.0033 | 0.031 | -0.13 | 0.0459 | -0.0014 | -0.011
Cc1c2c(nn1C)CSCc1cc(n(C)n1)CSc1cc(c3ccccc3c1)OCCCc1c(C(=O)O)n(C)c3c-2c(Cl)ccc13 [AZD5991] + CN(C)CCCOc1ccc(-c2ccc3ncc4c(c3c2)n(C2CCOCC2)c(=O)n4C)cn1 [AZD0156] (first compound max 1 µM, 7x7, partner max 1 µM) | 0.0051 | -0.0645 | -0.0015 | -0.0129 | 0.0115 | -0.0322 | -0.0427 | -0.0503 | 0.0079 | -0.007 | 0.0376 | -0.0619 | -0.034 | 0.0014 | -0.0225 | -0.0171 | 0.0198 | -0.0047 | 0.01 | -0.0786
Cc1nc(Nc2ncc(C(=O)Nc3c(C)cccc3Cl)s2)cc(N2CCN(CCO)CC2)n1 [Dasatinib] + CC(=O)Nc1cccc(-n2c(=O)n(C3CC3)c(=O)c3c(Nc4ccc(I)cc4F)n(C)c(=O)c(C)c32)c1 [Trametinib] (first compound max 2 µM, 7x7, partner max 1 µM) | 0.225 | -0.0457 | -0.0457 | -0.001 | 0.0659 | -0.0852 | -0.0545 | 0.0226 | -0.102 | 0.0019 | -0.0488 | -0.0719 | 0.0895 | 0.108 | 0.0155 | 0.0175 | -0.147 | 0.0295 | -0.0097 | 0.0171
Cc1c2c(nn1C)CSCc1cc(n(C)n1)CSc1cc(c3ccccc3c1)OCCCc1c(C(=O)O)n(C)c3c-2c(Cl)ccc13 [AZD5991] + CC1(C)CCC(CN2CCN(c3ccc(C(=O)NS(=O)(=O)c4ccc(NCC5CCOCC5)c([N+](=O)[O-])c4)c(Oc4cnc5[nH]ccc5c4)c3)CC2)=C(c2ccc(Cl)cc2)C1 [Venetoclax] (first compound max 1 µM, 7x7, partner max 1 µM) | 0.0059 | -0.0422 | 0.128 | -0.0455 | 0.119 | -0.0536 | 0.0257 | -0.0526 | 0.174 | 0.105 | 0.0384 | -0.0086 | -0.0144 | 0.137 | 0.0314 | 0.0182 | 0.147 | -0.0143 | -0.027 | -0.0298
C=CCn1c(=O)c2cnc(Nc3ccc(N4CCN(C)CC4)cc3)nc2n1-c1cccc(C(C)(C)O)n1 [AZD1775] + O=C(c1cc(Cc2n[nH]c(=O)c3ccccc23)ccc1F)N1CCN(C(=O)C2CC2)CC1 [Olaparib] (first compound max 1 µM, partner max 10 µM) | -0.0398 | 0.0065 | 0.0148 | -0.0203 | -0.0195 | -0.0054 | -0.0307 | -0.0292 | 0.0017 | -0.0188 | -0.12 | -0.0166 | -0.108 | -0.0809 | -0.0369 | 0.0102 | -0.0005 | -0.0289 | -0.0105 | -0.0223
CN(CCO)CC[C@H](CSc1ccccc1)Nc1ccc(S(=O)(=O)NC(=O)c2ccc(N3CCC([C@@H](O)c4ccccc4-c4ccc(Cl)cc4)CC3)cc2)cc1S(=O)(=O)C(F)(F)F [AZD4320] + CCN(CCO)CCCOc1ccc2c(Nc3cc(CC(=O)Nc4cccc(F)c4)[nH]n3)ncnc2c1 [AZD2811] (first compound max 1 µM, 7x7, partner max 1 µM) | -0.0226 | 0.0619 | 0.0467 | 0.0471 | 0.0803 | -0.0353 |  | -0.0297 | 0.0067 | -0.0205 | 0.0036 | -0.0539 | -0.0086 | -0.0531 | 0.114 | 0.0376 | 0.135 | -0.0262 | 0.0407 | 0.0236
C[C@@H](c1ccc2nccn2c1)n1nnc2ncc(-c3cnn(C)c3)nc21 [Savolitinib] + CC1(C)CCC(CN2CCN(c3ccc(C(=O)NS(=O)(=O)c4ccc(NCC5CCOCC5)c([N+](=O)[O-])c4)c(Oc4cnc5[nH]ccc5c4)c3)CC2)=C(c2ccc(Cl)cc2)C1 [Venetoclax] (first compound max 1 µM, 7x7, partner max 1 µM) | -0.0289 | 0.0121 | -0.0281 | -0.0501 | -0.015 | -0.0144 | -0.0484 | -0.0777 | -0.0236 | -0.0223 | -0.0399 | -0.0768 | -0.0478 | -0.102 | -0.0454 | -0.0531 | -0.0904 | -0.0709 | -0.0421 | -0.0687
CS(=O)(=O)CCNCc1ccc(-c2ccc3ncnc(Nc4ccc(OCc5cccc(F)c5)c(Cl)c4)c3c2)o1 [Lapatinib] + NC1(c2ccc(-c3nc4ccn5c(=O)[nH]nc5c4cc3-c3ccccc3)cc2)CCC1 [MK-2206] (first compound max 10 µM, 7x7, partner max 10 µM) | 0.0412 | 0.0031 | 0.0308 | -0.0466 |  | -0.0408 |  | -0.0441 |  | 0.0128 | 0.0054 |  | -0.0165 | -0.062 | -0.0411 | 0.0257 | 0.0539 |  | 0.0254 | -0.0006
C=CCn1c(=O)c2cnc(Nc3ccc(N4CCN(C)CC4)cc3)nc2n1-c1cccc(C(C)(C)O)n1 [AZD1775] + C1CN(CCC1(C(=O)N[C@@H](CCO)C2=CC=C(C=C2)Cl)N)C3=NC=NC4=C3C=CN4 [Capivasertib] (first compound max 3 µM, partner max 3 µM) |  | -0.087 | 0.0403 | -0.0797 | 0.0152 | -0.059 | -0.0004 | -0.107 | -0.0422 |  | -0.0472 | -0.0144 | -0.0475 | -0.0276 | 0.0315 | -0.0495 |  |  | -0.0575 | -0.0152
CN(C)CCCOc1ccc(-c2ccc3ncc4c(c3c2)n(C2CCOCC2)c(=O)n4C)cn1 [AZD0156] + O=C(c1cc(Cc2n[nH]c(=O)c3ccccc23)ccc1F)N1CCN(C(=O)C2CC2)CC1 [Olaparib] (first compound max 3 µM, partner max 3 µM) |  | 0.0373 | 0.217 | -0.0685 | 0.0474 | -0.0491 | -0.0026 | -0.0029 | 0.109 | 0.0239 | 0.179 | -0.0356 | 0.0468 | 0.0759 | -0.0585 | 0.0888 | 0.0638 |  | -0.0267 | 0.0549
C[C@@H]1COCCN1c1cc(C2([S@](C)(=N)=O)CC2)nc(-c2ccnc3[nH]ccc23)n1 [AZD6738] + O=C(c1cc(Cc2n[nH]c(=O)c3ccccc23)ccc1F)N1CCN(C(=O)C2CC2)CC1 [Olaparib] (first compound max 10 µM, 7x7, partner max 10 µM) | -0.0367 | 0.0027 | 0.02 | -0.0082 | -0.0154 | -0.0012 | 0.0387 | 0.0197 | -0.0135 | -0.0458 | 0.0238 | 0.0483 | -0.0674 | -0.0848 | -0.0067 | -0.0166 | -0.0355 | -0.0019 | 0.0294 | 
CN(CCO)CC[C@H](CSc1ccccc1)Nc1ccc(S(=O)(=O)NC(=O)c2ccc(N3CCC([C@@H](O)c4ccccc4-c4ccc(Cl)cc4)CC3)cc2)cc1S(=O)(=O)C(F)(F)F [AZD4320] + Cn1cnc2c(F)c(Nc3ccc(Br)cc3Cl)c(C(=O)NOCCO)cc21 [Selumetinib] (first compound max 1 µM, 7x7, partner max 3 µM) | -0.0159 | 0.0293 | 0.0011 | 0.0146 | 0.0452 | 0.0228 |  | 0.0502 | 0.0223 | 0.0005 | -0.0002 | -0.0159 | -0.0839 | 0.125 | -0.0474 | 0.041 | -0.401 | 0.0604 | 0.0038 | 0.0039
Cc1nc(-c2cn3c(n2)-c2ccc(-c4cnn(C(C)(C)C(N)=O)c4)cc2OCC3)n(C(C)C)n1 [Taselisib] + O=C(Nc1ccc2[nH]nc(-c3ccncc3)c2c1)[C@@H]1CCN(CC(=O)N2CCN(c3ccc(-c4ncccn4)cc3)CC2)C1 [SCH772984] (first compound max 10 µM, 7x7, partner max 5 µM) | 0.203 | 0.106 | 0.0152 | 0.131 |  | 0.0839 |  |  |  | 0.0128 | -0.0007 |  |  | 0.0477 | 0.0272 |  | 0.0524 |  | -0.0211 | 0.0609
CCc1c2c(nc3ccc(O)cc13)-c1cc3c(c(=O)n1C2)COC(=O)[C@]3(O)CC [SN-38] + O=C(c1cc(Cc2n[nH]c(=O)c3ccccc23)ccc1F)N1CCN(C(=O)C2CC2)CC1 [Olaparib] (first compound max 0.3 µM, 7x7, partner max 10 µM) | 0.028 | 0.0057 | 0.0213 | 0.0376 |  | 0.0387 |  | 0.0825 |  | 0.026 | 0.0958 |  | -0.0067 | 0.0648 | 0.0711 | 0.0687 | 0.0327 |  | 0.0565 | 0.081
CS(=O)(=O)CCNCc1ccc(-c2ccc3ncnc(Nc4ccc(OCc5cccc(F)c5)c(Cl)c4)c3c2)o1 [Lapatinib] + Cn1cnc2c(F)c(Nc3ccc(Br)cc3Cl)c(C(=O)NOCCO)cc21 [Selumetinib] (first compound max 10 µM, 7x7, partner max 10 µM) | 0.146 | 0.0047 | -0.0366 | -0.0401 |  | -0.0654 |  |  |  | -0.0206 | -0.0159 |  |  | -0.0118 | -0.0383 |  | 0.0683 |  | -0.071 | -0.0923
